In US20230372253A1, “NOVEL LIPID-BASED SMALL MOLECULE INTEGRIN RECEPTOR-LIGAND AGONIST ADJUVANTS CARRIER COMPOSITIONS, INTEGRIN AGONIST ADJUVANT PHARMACEUTICAL COMPOSITIONS THEREFROM, AND METHODS FOR MAKING AND USING SAME” (7 Hills Pharma LLC, priority 2022, published 2023):
Like-named read-outs stand apart in the source and are kept apart here. Values belong to the compound of their own block, whether it stands above or below them.

Columns and labels:
LogP = type: physicochemical
Text: The term “Log P” means the ratio of the concentrations of a substance in two heterogenous phases in equilibrium with each other. Typically, the organic solvent in n-octanol, but n-hexane; toluene; chlorobenzene; dichloromethane; methyl tert-butyl ether; isopropyl acetate; benzyl alcohol; cyclohexanol; or n-butanol may be used as well.

CYP2C19 = CYP2C19 (Homo sapiens, UniProt P33261); assay: Cytochrome P450 Metabolism; type: in vitro ADME
Chain of CYP2C19 (P33261 whole entry): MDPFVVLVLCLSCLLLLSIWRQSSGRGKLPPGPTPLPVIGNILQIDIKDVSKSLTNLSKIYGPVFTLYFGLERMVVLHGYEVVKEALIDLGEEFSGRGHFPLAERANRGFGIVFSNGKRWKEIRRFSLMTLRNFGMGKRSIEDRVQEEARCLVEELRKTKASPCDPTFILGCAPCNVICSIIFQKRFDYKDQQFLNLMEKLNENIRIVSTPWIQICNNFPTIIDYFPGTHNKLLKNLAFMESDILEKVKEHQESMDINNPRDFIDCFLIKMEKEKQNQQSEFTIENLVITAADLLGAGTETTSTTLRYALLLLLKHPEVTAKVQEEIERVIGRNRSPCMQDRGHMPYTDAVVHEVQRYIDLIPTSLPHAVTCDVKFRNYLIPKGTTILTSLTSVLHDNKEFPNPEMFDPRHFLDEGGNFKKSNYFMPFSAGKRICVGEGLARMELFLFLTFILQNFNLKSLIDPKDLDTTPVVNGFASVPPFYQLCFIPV

Human SAD PK = type: in vivo; conditions: plasma, oral; for AUC(0-t): human; for AUC(0-t) / Cmax / half-life: mean ± SD; for Cmax / half-life / Tmax: n = 6; for Tmax: median
Protocol: Preferred lipid-based formulation based on U28 provided adequate exposure in human. The optimal PK exposure to engage integrins and improve adjuvant activity is systemic plasma exposure of AUC0-t between about 50 ng/mL/hr and about 100 ng/mL/hr.

Solubility of 7HP349 = type: physicochemical
CYP3A4 = CYP3A4 (Homo sapiens, UniProt P08684); assay: Cytochrome P450 Metabolism; type: in vitro ADME
Chain of CYP3A4 (P08684 whole entry): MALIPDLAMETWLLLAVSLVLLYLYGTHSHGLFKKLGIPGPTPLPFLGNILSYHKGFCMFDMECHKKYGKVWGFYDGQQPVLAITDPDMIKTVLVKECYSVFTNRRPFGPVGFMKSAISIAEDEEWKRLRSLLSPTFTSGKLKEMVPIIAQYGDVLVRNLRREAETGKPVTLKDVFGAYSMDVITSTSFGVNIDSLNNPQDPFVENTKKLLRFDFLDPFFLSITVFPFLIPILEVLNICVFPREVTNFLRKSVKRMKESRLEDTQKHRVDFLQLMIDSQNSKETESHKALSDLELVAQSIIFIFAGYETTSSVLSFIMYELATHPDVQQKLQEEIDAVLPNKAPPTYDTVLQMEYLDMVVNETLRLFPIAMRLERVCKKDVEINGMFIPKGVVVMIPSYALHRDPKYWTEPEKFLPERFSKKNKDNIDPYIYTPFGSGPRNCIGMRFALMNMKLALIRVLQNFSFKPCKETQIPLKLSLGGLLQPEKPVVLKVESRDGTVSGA

logP (LogP): 6.58
SMILES: O=C(OCCOCCOC(=O)N(Cc1cccs1)Cc1cccs1)N(Cc1cccs1)Cc1cccs1 [Form 7HP577, 3-oxo-1-(2-thienyl)-2-(2-thienylmethyl)-4,7-dioxa-2-azanonan-9-yl bis(2-thienylmethyl)carbamate]

logP (LogP): 6.22
Cytochrome P450 Metabolism (CYP2C19): Substrate for CYP3A4 and CYP2C19
AUC(0-t) (Human SAD PK; 50 mg, cohort 1, 50 mg, n = 6, read-out: AUC0-10 h): 12.5 ng·h/mL
AUC(0-t) (Human SAD PK; 50 mg, cohort 1, 50 mg, n = 6, read-out: AUClast): 31.8 ± 21.5 ng·h/mL
AUC(0-t) (Human SAD PK; 100 mg, cohort 2, 100 mg, n = 6, read-out: AUC0-10 h): 115 ± 57.5 ng·h/mL
AUC(0-t) (Human SAD PK; 100 mg, cohort 2, 100 mg, n = 6, read-out: AUClast): 165 ng·h/mL
AUC(0-t) (Human SAD PK; 200 mg, cohort 3, 200 mg, n = 6, read-out: AUC0-10 h): 571 ± 195 ng·h/mL
AUC(0-t) (Human SAD PK; 200 mg, cohort 3, 200 mg, n = 6, read-out: AUClast): 755 ± 241 ng·h/mL
AUC(0-t) (Human SAD PK; 300 mg, cohort 4, 300 mg, n = 6, read-out: AUC0-10 h): 938 ± 282 ng·h/mL
AUC(0-t) (Human SAD PK; 300 mg, cohort 4, 300 mg, n = 6, read-out: AUClast): 1350 ± 316 ng·h/mL
Cmax (Human SAD PK; cohort 1, 50 mg): 10.2 ± 8.17 ng/mL
half-life (Human SAD PK; cohort 1, 50 mg): 8.9 h
Tmax (Human SAD PK; cohort 1, 50 mg): 2.5 h
Cmax (Human SAD PK; cohort 2, 100 mg): 36.1 ± 16.4 ng/mL
half-life (Human SAD PK; cohort 2, 100 mg): 20.6 ± 15 h
Tmax (Human SAD PK; cohort 2, 100 mg): 2 h
Cmax (Human SAD PK; cohort 3, 200 mg): 166 ± 61.8 ng/mL
half-life (Human SAD PK; cohort 3, 200 mg): 34.6 ± 20.7 h
Tmax (Human SAD PK; cohort 3, 200 mg): 2 h
Cmax (Human SAD PK; cohort 4, 300 mg): 321 ng/mL
half-life (Human SAD PK; cohort 4, 300 mg): 29.7 ± 15.4 h
Tmax (Human SAD PK; cohort 4, 300 mg): 2 h
Solubility (Solubility of 7HP349; aqueous buffers and simulated gastrointestinal fluids, aqueous buffer, hydrochloric acid-potassium chloride buffer (pH 2), citrate buffer (pH 4), sodium phosphate buffer (pH 7.4), SGF, FaSSIF and FeSSIF, read-out: Solubility): < 0.01 µM
Solubility (Solubility of 7HP349; in water): Insoluble in water
Solubility (Solubility of 7HP349; oil or lipid, vegetable oils such as corn, soybean, canola oils typically containing >C16 fatty acids, read-out: Solubility): ≤ 50 mg/mL
Cytochrome P450 Metabolism (CYP3A4): Substrate for CYP3A4 and CYP2C19
SMILES: O=C(OCCOCCOCCOC(=O)N(Cc1cccs1)Cc1cccs1)N(Cc1cccs1)Cc1cccs1 [Form 7HP349, 3-oxo-1-(2-thienyl)-2-(2-thienylmethyl)-4,7,10-trioxa-2-azadodecan-12-yl bis(2-thienylmethyl)carbamate]
Solubility (Solubility of 7HP349; common organic solvents such as methanol, ethanol, ethyl acetate, acetone, DMSO, DMF, DCM, etc.): Highly soluble in common organic solvents such
Solubility (Solubility of 7HP349; non-polar organic solvents such as hexane, heptane, etc.): Practically insoluble in non-polar organic solvents
